Experimental data from PubChem BioAssay (NCI).
“And” between values parts separate entries of the source, which are not always exact repeats. Equal entries are not always repeated.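 Assay format: 96-well plates, 48-hour exposure. The concentration for 50% growth inhibition is given as GI50. TGI denotes the concentration required for complete inhibition of growth.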

Tests used:
Test in all cases: NCI tumour cell line growth inhibition, 48 h
[1] = tested on: KM12 colon
[2] = tested on: SNB-19 CNS
[3] = tested on: SR leukemia
[4] = tested on: HOP-92 NSCLC
[5] = tested on: MDA-MB-435
[6] = tested on: 786-0 renal
[7] = tested on: SF-295 CNS
[8] = tested on: LOX IMVI melanoma
[9] = tested on: CCRF-CEM leukemia
[10] = tested on: M14 melanoma
[11] = tested on: MCF7 breast
[12] = tested on: U251 CNS
[13] = tested on: PC-3 prostate
[14] = tested on: K-562 leukemia
[15] = tested on: MDA-MB-231 breast
[16] = tested on: NCI/ADR-RES ovarian
[17] = tested on: UACC-257 melanoma
[18] = tested on: NCI-H23 lung
[19] = tested on: NCI-H460 lung
[20] = tested on: TK-10 renal
[21] = tested on: OVCAR-3 ovarian
[22] = tested on: SK-MEL-28 melanoma
[23] = tested on: ACHN renal
[24] = tested on: SK-MEL-5 melanoma
[25] = tested on: MALME-3M melanoma
[26] = tested on: SN12C renal
[27] = tested on: HCT-116 colon
[28] = tested on: HT29 colon
[29] = tested on: UO-31 renal
[30] = tested on: OVCAR-8 ovarian
[31] = tested on: A549 NSCLC
[32] = tested on: BT-549 breast
[33] = tested on: OVCAR-5 ovarian
[34] = tested on: CAKI-1 renal
[35] = tested on: HL-60(TB) leukemia
[36] = tested on: MOLT-4 leukemia
[37] = tested on: DU-145 prostate
[38] = tested on: HCC-2998 colon
[39] = tested on: EKVX NSCLC
[40] = tested on: OVCAR-4 ovarian
[41] = tested on: HOP-62 NSCLC
[42] = tested on: SK-MEL-2 melanoma
[43] = tested on: HCT-15 colon
[44] = tested on: COLO 205 colon
[45] = tested on: RPMI-8226 leukemia
[46] = tested on: MDA-N
[47] = tested on: A498 renal
[48] = tested on: SK-OV-3 ovarian
[49] = tested on: RXF 393 renal
[50] = tested on: UACC-62 melanoma
[51] = tested on: SF-268 CNS
[52] = tested on: IGROV1 ovarian
[53] = tested on: SF-539 CNS
[54] = tested on: SW-620 colon
[55] = tested on: HS 578T breast
[56] = tested on: NCI-H226 lung
[57] = tested on: SNB-75 CNS
[58] = tested on: T-47D breast
[59] = tested on: NCI-H522 lung

## CC(Nc1n[nH]c(=O)c2c1nnn2Cc1ccccc1)c1ccccc1 (stereo unspecified)
[1]
  TGI: > 100 µM
[2]
  GI50: > 100 µM and 21.7 µM
  TGI: > 100 µM and 66.2 µM
[3]
  GI50: > 100 µM and 48 µM
  TGI: > 100 µM
[4]
  TGI: > 100 µM and 63.3 µM
[5]
  TGI: > 100 µM
[6]
  TGI: 30.1 µM
[7]
  TGI: > 100 µM and 61.1 µM
[8]
  GI50: > 100 µM and 32.7 µM
  TGI: > 100 µM
[9]
  TGI: > 100 µM
[10]
  TGI: > 100 µM
[11]
  TGI: > 100 µM
[12]
  TGI: > 100 µM and 88.7 µM
[13]
  GI50: > 100 µM and 20.8 µM
  TGI: > 100 µM
[14]
  GI50: > 100 µM and 22.8 µM
  TGI: > 100 µM
[15]
  GI50: > 100 µM and 49.8 µM
  TGI: > 100 µM
[16]
  TGI: > 100 µM
[17]
  TGI: > 100 µM
[18]
  GI50: > 100 µM and 43.8 µM
  TGI: > 100 µM
[19]
  GI50: > 100 µM and 31 µM
  TGI: > 100 µM
[20]
  GI50: 89.3 µM and 23.4 µM
  TGI: > 100 µM and 64.7 µM
[21]
  TGI: > 100 µM
[22]
  TGI: > 100 µM
[23]
  TGI: > 100 µM
[24]
  TGI: > 100 µM
[25]
  GI50: > 100 µM and 24.7 µM
  TGI: > 100 µM
[26]
  TGI: > 100 µM
[27]
  TGI: > 100 µM
[28]
  TGI: 24.7 µM
[29]
  GI50: > 100 µM and 23.1 µM
  TGI: > 100 µM
[30]
  GI50: > 100 µM and 44.5 µM
  TGI: > 100 µM
[31]
  TGI: > 100 µM
[32]
  GI50: > 100 µM and 37.5 µM
  TGI: > 100 µM
[33]
  TGI: > 100 µM
[34]
  TGI: > 100 µM and 52.9 µM
[35]
  GI50: 37.4 µM and > 100 µM
  TGI: > 100 µM
[36]
  TGI: > 100 µM
[37]
  TGI: > 100 µM
[38]
  TGI: > 100 µM
[39]
  TGI: > 100 µM
[40]
  GI50: > 100 µM and 26.8 µM
  TGI: > 100 µM
[41]
  GI50: > 100 µM and 21.7 µM
  TGI: > 100 µM and 86 µM
[42]
  GI50: > 100 µM and 41.5 µM
  TGI: > 100 µM
[43]
  TGI: > 100 µM
[44]
  TGI: > 100 µM
[45]
  TGI: > 100 µM
[46]
  GI50: > 100 µM and 32.3 µM
  TGI: > 100 µM

## Cn1c(=O)sc2cc(C(=S)N3CCN(c4ccccc4)CC3)ccc21
[1]
  TGI: > 100 µM
[2]
  TGI: > 100 µM
[3]
  TGI: > 100 µM
[5]
  TGI: > 100 µM
[6]
  TGI: > 100 µM
[7]
  TGI: 53.9 µM
[8]
  TGI: > 100 µM
[9]
  TGI: > 100 µM
[10]
  TGI: > 100 µM
[11]
  TGI: > 100 µM
[12]
  TGI: 35.1 µM
[47]
  TGI: > 100 µM
[48]
  TGI: > 100 µM
[13]
  TGI: > 100 µM
[14]
  TGI: > 100 µM
[49]
  TGI: > 100 µM
[15]
  TGI: > 100 µM
[16]
  TGI: > 100 µM
[17]
  TGI: > 100 µM
[18]
  TGI: > 100 µM
[19]
  TGI: > 100 µM
[20]
  TGI: > 100 µM
[21]
  TGI: > 100 µM
[22]
  TGI: > 100 µM
[50]
  TGI: > 100 µM
[23]
  TGI: > 100 µM
[24]
  TGI: > 100 µM
[25]
  TGI: > 100 µM
[26]
  TGI: > 100 µM
[51]
  TGI: > 100 µM
[27]
  TGI: > 100 µM
[28]
  TGI: > 100 µM
[52]
  TGI: > 100 µM
[30]
  TGI: > 100 µM
[53]
  TGI: 61.4 µM
[54]
  TGI: > 100 µM
[55]
  TGI: > 100 µM
[32]
  TGI: > 100 µM
[33]
  TGI: > 100 µM
[34]
  TGI: > 100 µM
[35]
  TGI: > 100 µM
[36]
  TGI: > 100 µM
[37]
  TGI: > 100 µM
[39]
  TGI: > 100 µM
[56]
  TGI: > 100 µM
[41]
  TGI: 42.8 µM
[42]
  TGI: > 100 µM
[43]
  TGI: > 100 µM
[44]
  TGI: > 100 µM
[57]
  TGI: 80.6 µM
[45]
  TGI: > 100 µM
[46]
  TGI: > 100 µM

## COc1nc(C)nc2c1ncn2Cc1ccccc1
[1]
  TGI: > 100 µM
[2]
  TGI: > 100 µM
[3]
  TGI: > 100 µM
[4]
  TGI: 53.9 µM
[5]
  TGI: > 100 µM
[6]
  TGI: > 100 µM
[7]
  TGI: > 100 µM
[8]
  TGI: > 100 µM
[9]
  TGI: > 100 µM
[10]
  TGI: > 100 µM
[11]
  TGI: > 100 µM
[12]
  TGI: > 100 µM
[47]
  TGI: > 100 µM
[48]
  TGI: > 100 µM
[58]
  TGI: > 100 µM
[13]
  TGI: > 100 µM
[14]
  TGI: > 100 µM
[49]
  TGI: > 100 µM
[15]
  TGI: > 100 µM
[16]
  TGI: > 100 µM
[17]
  TGI: > 100 µM
[18]
  TGI: > 100 µM
[19]
  TGI: > 100 µM
[20]
  TGI: > 100 µM
[21]
  TGI: > 100 µM
[22]
  TGI: > 100 µM
[50]
  TGI: > 100 µM
[23]
  TGI: > 100 µM
[24]
  TGI: > 100 µM
[25]
  TGI: > 100 µM
[26]
  TGI: > 100 µM
[51]
  TGI: > 100 µM
[27]
  TGI: > 100 µM
[28]
  TGI: > 100 µM
[52]
  TGI: > 100 µM
[30]
  TGI: > 100 µM
[31]
  TGI: > 100 µM
[53]
  TGI: > 100 µM
[54]
  TGI: > 100 µM
[55]
  TGI: > 100 µM
[33]
  TGI: > 100 µM
[34]
  TGI: > 100 µM
[35]
  TGI: > 100 µM
[37]
  TGI: > 100 µM
[38]
  TGI: > 100 µM
[39]
  TGI: > 100 µM
[56]
  TGI: > 100 µM
[59]
  TGI: > 100 µM
[40]
  TGI: > 100 µM
[41]
  TGI: > 100 µM
[43]
  TGI: > 100 µM
[44]
  TGI: > 100 µM
[57]
  TGI: > 100 µM
[45]
  TGI: > 100 µM
[46]
  TGI: > 100 µM
